Reference: US20250313563A1, “GLYCOGEN SYNTHASE KINASE 3 INHIBITORS AND USES THEREOF” (The Broad Institute, Inc., priority 2022, published 2025)
pIC50: −log10 of the molar value. Read-outs that look alike come from different tables or passages of the source.

How the values were obtained:
[1] = biological target: GSK3b (GST-full length GSK3b) (Homo sapiens (Human), UniProt P49841); assay: GSK3b TR-FRET kinase assay; format: biochemical
Description: (§1) TR-FRET Assay: The assay was performed in a white, 384 well, low volume, flat bottom plate (Grenier). After a 30 minute preincubation in assay buffer with the indicated concentration of compound, the kinase activity was initiated by the addition of the substrates. 1 nM GSK3α (GST-full length GSK3α [SignalChem G08-10G]) or 1 nM GSK3b (GST-full length GSK3b: [SignalChem G08-9G]) were then incubated at ambient temperature for 100 minutes in 10 μL of 50 mM Tris, pH 7.5, 20 mM MgCl2, 0.05 mM DTT, 100 μg/mL BSA and 1% DMSO, with 200 nM biotinylated peptide substrate (biotinylated and S645 phosphorylated glycogen synthase 631-650) and either 4 μM ATP (GSK3α, Table 16) or 2 μM ATP (GSK3b, Table 16) or 1 mM ATP (Table 17). The kinase activity was quenched with 2 μL of 250 mM EDTA. A 10 μL volume of 40 nM Strepavidin-d2, 2 nM Tb^2+-pSer641 antibody in TR-FRET Detection Buffer (Invitrogen) was then added. After 60 min at room temperature the plate was read on Envision plate reader using Ex: 340 nm, Em: 615 nm and […]. The normalized 665/615 Signal ratio versus log compound concentration was analyzed by XLFIT to yield IC50 values.

[2] = biological target: GSK3α (GST-full length GSK3α) (Homo sapiens (Human), UniProt P49840); assay: GSK3α TR-FRET kinase assay; format: biochemical
GSK3α (GST-full length GSK3α), sequence (P49840 whole entry): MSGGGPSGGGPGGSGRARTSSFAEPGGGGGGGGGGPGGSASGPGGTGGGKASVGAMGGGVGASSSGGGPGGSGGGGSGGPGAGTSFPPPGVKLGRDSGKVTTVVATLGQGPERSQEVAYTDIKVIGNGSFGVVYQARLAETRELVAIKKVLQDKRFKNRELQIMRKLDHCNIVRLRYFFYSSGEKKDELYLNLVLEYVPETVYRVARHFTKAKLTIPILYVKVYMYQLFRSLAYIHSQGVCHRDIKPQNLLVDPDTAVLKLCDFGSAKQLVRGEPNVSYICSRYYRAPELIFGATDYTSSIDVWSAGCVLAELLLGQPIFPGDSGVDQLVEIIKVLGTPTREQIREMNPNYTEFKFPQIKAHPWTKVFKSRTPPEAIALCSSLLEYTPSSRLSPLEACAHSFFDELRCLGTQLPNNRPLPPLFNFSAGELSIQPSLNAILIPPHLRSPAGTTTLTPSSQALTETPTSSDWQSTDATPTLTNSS
Description: as §1

[3] = 1 nM GSK3b, 2 μM ATP, 30 minute preincubation, geometric mean, read-out: GSK3-B TR-FRET BIOCHEMICAL (TR-FRET), GMean, IC50
[4] = 1 nM GSK3α, 4 μM ATP, 30 minute preincubation, geometric mean, read-out: GSK3-A TR-FRET BIOCHEMICAL (TR-FRET), GMean, IC50
[5] = read-out: GSK3-B (TR-FRET 1 mM ATP), GMean, IC50, 1 mM ATP, geometric mean
[6] = read-out: GSK3-A (TR-FRET 1 mM ATP), GMean, IC50, 1 mM ATP, geometric mean
[7] = 1 nM GSK3b, 2 μM ATP, 30 minute preincubation, Table 16, read-out: GSK3-B TR-FRET BIOCHEMICAL (TR-FRET)
[8] = 1 nM GSK3α, 4 μM ATP, 30 minute preincubation, Table 16, read-out: GSK3-A TR-FRET BIOCHEMICAL (TR-FRET)

GSK3b (GST-full length GSK3b), sequence (P49841 whole entry): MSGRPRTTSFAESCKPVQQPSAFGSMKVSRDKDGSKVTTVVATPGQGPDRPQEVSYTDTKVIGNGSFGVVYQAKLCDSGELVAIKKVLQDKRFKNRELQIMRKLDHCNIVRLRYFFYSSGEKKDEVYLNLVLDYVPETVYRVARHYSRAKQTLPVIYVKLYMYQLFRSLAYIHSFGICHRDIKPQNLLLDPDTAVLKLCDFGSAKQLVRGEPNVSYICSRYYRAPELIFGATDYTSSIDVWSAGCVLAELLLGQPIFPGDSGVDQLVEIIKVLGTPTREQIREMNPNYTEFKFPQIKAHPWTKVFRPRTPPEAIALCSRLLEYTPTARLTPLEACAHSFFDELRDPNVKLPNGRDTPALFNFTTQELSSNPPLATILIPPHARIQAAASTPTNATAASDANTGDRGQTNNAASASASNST

| Structure (SMILES) | pIC50 [1, 3] | pIC50 [2, 4] | further results |
| --- | --- | --- | --- |
| CCC1(c2cccc(Br)c2)C2=C(CC(C)(C)CC2=O)Nc2n[nH]cc21 (stereo not drawn) [Compound 790734] | < 5.30 | 6.00 to 7.00 |  |
| CCC1(c2cccc(C(F)(F)F)c2)C2=C(CC(C)(C)CC2=O)Nc2n[nH]cc21 (stereo not drawn) [Compound 790754] | ≥ 7.00 | ≥ 7.00 | pIC50 [1, 5]: 5.30 to 6.00; pIC50 [2, 6]: 6.00 to 7.00 |
| CC(C)(C)Cc1[nH]nc2c1C1(CCc3c(F)cccc31)C1=C(CC(C)(C)CC1=O)N2 (stereo not drawn) [Compound 791256] | 5.30 to 6.00 | < 5.77 |  |
| CC[C@]1(c2ccccc2)C2=C(C[C@H](c3ccccc3)CC2=O)Nc2n[nH]cc21 [Compound 791262] | < 5.30 | < 5.30 |  |
| CC[C@@]1(c2ccccc2)C2=C(C[C@H](c3ccccc3)CC2=O)Nc2n[nH]cc21 [Compound 791263] | < 5.30 | < 5.30 |  |
| CC[C@]1(c2ccccc2)C2=C(C[C@@H](c3ccccc3)CC2=O)Nc2n[nH]cc21 [Compound 791264] | < 5.30 | 6.00 to 7.00 |  |
| CC[C@@]1(c2ccccc2)C2=C(C[C@@H](c3ccccc3)CC2=O)Nc2n[nH]cc21 [Compound 791265] | < 5.30 | 5.30 to 6.00 |  |
| CC[C@]1(c2ccccc2)C2=C(Nc3n[nH]cc31)[C@@H]1CC[C@@H](C1)C2=O [Compound 791266] |  |  | pIC50 [1, 7]: < 5.30; pIC50 [2, 8]: < 5.30 |
| CC[C@@]1(c2ccccc2)C2=C(Nc3n[nH]cc31)[C@@H]1CC[C@@H](C1)C2=O [Compound 791268] |  |  | pIC50 [1, 7]: < 5.30; pIC50 [2, 8]: < 5.30 |
| CC[C@]1(c2ccccc2)C2=C(Nc3n[nH]cc31)[C@H]1CC[C@H](C1)C2=O [Compound 791269] |  |  | pIC50 [1, 7]: 6.00 to 7.00; pIC50 [2, 8]: 6.00 to 7.00 |
| CC[C@@]1(c2ccccc2)C2=C(Nc3n[nH]cc31)[C@H]1CC[C@H](C1)C2=O [Compound 791270] |  |  | pIC50 [1, 7]: < 5.77; pIC50 [2, 8]: 6.00 to 7.00 |
| CCC1(c2cccc(-c3ccncc3)c2)C2=C(CC(C)(C)CC2=O)Nc2n[nH]cc21 (stereo not drawn) [Compound 791271] | 6.00 to 7.00 | ≥ 7.00 |  |
| CCC1(c2cccc(-c3cccnc3)c2)C2=C(CC(C)(C)CC2=O)Nc2n[nH]cc21 (stereo not drawn) [Compound 791272] | 6.00 to 7.00 | ≥ 7.00 |  |
| C[C@@]1(c2ccccc2)C2=C(CC3(CCCC3)CC2=O)Nc2n[nH]cc21 [Compound 792338] | 6.00 to 7.00 | ≥ 7.00 |  |
| C[C@]1(c2ccccc2)C2=C(CC3(CCCC3)CC2=O)Nc2n[nH]cc21 [Compound 792339] | < 5.30 | < 5.77 |  |
| CC[C@@]1(c2ccccc2)C2=C(CC(C)(C)CC2=O)Nc2n[nH]c(Br)c21 [Compound 792340] | ≥ 7.00 | ≥ 7.00 | pIC50 ([1]; GSK3-B (TR-FRET 1 mM ATP), GMean, IC50, 1 mM ATP, geometric mean): 6.00 to 7.00; pIC50 ([2]; GSK3-A (TR-FRET 1 mM ATP), GMean, IC50, 1 mM ATP, geometric mean): 6.00 to 7.00 |
| CC[C@]1(c2ccccc2)C2=C(CC(C)(C)CC2=O)Nc2n[nH]c(Br)c21 [Compound 792341] | 6.00 to 7.00 | 6.00 to 7.00 |  |
| COc1cccc(C2(C)C3=C(CC(C)(C)CC3=O)Nc3n[nH]cc32)c1 (stereo not drawn) [Compound 792342] | 6.00 to 7.00 | 6.00 to 7.00 |  |
| CCC1(c2cccc(Cl)c2)C2=C(CC(C)(C)CC2=O)Nc2n[nH]c(C(F)(F)F)c21 (stereo not drawn) [Compound 801309] | < 5.78 | 5.30 to 6.00 |  |
| CC[C@@]1(c2cccc(C(F)(F)F)c2)C2=C(CC3(CCCC3)CC2=O)Nc2n[nH]cc21 [Compound 801311] | ≥ 7.00 | ≥ 7.00 | pIC50 [1, 5]: 6.00 to 7.00; pIC50 [2, 6]: ≥ 7.00 |
| CCC1(c2cccc(Cl)c2)C2=C(CC(C)(C)CC2=O)Nc2n[nH]c(Br)c21 (stereo not drawn) [Compound 801314] |  |  | pIC50 [1, 5]: 6.00 to 7.00; pIC50 [2, 6]: ≥ 7.00 |
| CCC1(c2cccc(C3CC3)c2)C2=C(CC(C)(C)CC2=O)Nc2n[nH]cc21 (stereo not drawn) [Compound 801316] | ≥ 7.00 | ≥ 7.00 |  |
| CCC1(c2cccc(N3CCCC3)c2)C2=C(CC(C)(C)CC2=O)Nc2n[nH]cc21 (stereo not drawn) [Compound 801317] | 6.00 to 7.00 | 6.00 to 7.00 |  |
| CCC1(c2cccc(N(C)C(C)=O)c2)C2=C(CC(C)(C)CC2=O)Nc2n[nH]cc21 (stereo not drawn) [Compound 801319] | ≥ 7.00 | ≥ 7.00 |  |
| CCC1(c2cccc(N3CCCCC3)c2)C2=C(CC(C)(C)CC2=O)Nc2n[nH]cc21 (stereo not drawn) [Compound 801320] | 6.00 to 7.00 | 6.00 to 7.00 |  |

| Structure (SMILES) | pIC50 [1, 3] | pIC50 [2, 4] | further results |
| --- | --- | --- | --- |
| CCC1(c2cccc(C(C)C)c2)C2=C(CC(C)(C)CC2=O)Nc2n[nH]cc21 (stereo not drawn) [Compound 801322] | 6.00 to 7.00 | ≥ 7.00 |  |
| CCC1(c2cccc(Br)c2)C2=C(CC(C)(C)CC2=O)Nc2n[nH]c(C(F)(F)F)c21 (stereo not drawn) [Compound 801324] | ≥ 7.00 | ≥ 7.00 |  |
| CC(C)(C)Cc1[nH]nc2c1C1(CCc3cccc(F)c31)C1=C(CC(C)(C)CC1=O)N2 (stereo not drawn) [Compound 801351] | 6.00 to 7.00 | < 5.78 |  |
| CC1(C)CC(=O)C2=C(C1)Nc1n[nH]cc1C21CCc2c(F)cccc21 (stereo not drawn) [Compound 801357] | < 5.78 | 6.00 to 7.00 |  |
| CC1(C)CC(=O)C2=C(C1)Nc1n[nH]c(Br)c1C21CCc2c(F)cccc21 (stereo not drawn) [Compound 801358] | ≥ 7.00 | ≥ 7.00 |  |
| CC1(C)CC(=O)C2=C(C1)Nc1n[nH]cc1[C@@]2(C)c1cccc(-c2ccccc2)c1 [Compound 801366] | < 5.30 | < 5.30 |  |
| CC1(C)CC(=O)C2=C(C1)Nc1n[nH]cc1[C@]2(C)c1cccc(-c2ccccc2)c1 [Compound 801367] | 6.00 to 7.00 | ≥ 7.00 |  |
| CCC1(c2cccc(-c3ccccc3)c2)C2=C(CC(C)(C)CC2=O)Nc2n[nH]cc21 (stereo not drawn) [Compound 801369] | < 5.30 | < 5.30 |  |
| CCC1(c2ccccc2)C2=C(CSCC2=O)Nc2n[nH]cc21 (stereo not drawn) [Compound 801406] |  |  | pIC50 ([1]; 1 nM GSK3b, 2 μM ATP, 30 minute preincubation, read-out: GSK3-B TR-FRET BIOCHEMICAL (TR-FRET), IC50): < 5.30; pIC50 ([2]; 1 nM GSK3α, 4 μM ATP, 30 minute preincubation, read-out: GSK3-A TR-FRET BIOCHEMICAL (TR-FRET), IC50): 5.30 to 6.00 |
| CC[C@@]1(c2cccc(-c3ccncc3)c2)C2=C(CC(C)(C)CC2=O)Nc2n[nH]cc21 [Compound 801412] | < 5.30 | < 5.30 |  |
| CCC1(c2cccc(-c3ccncc3)c2)C2=C(CC(C)(C)CC2=O)Nc2n[nH]cc21 (stereo not drawn) [Compound 801413] | ≥ 7.00 | ≥ 7.00 | pIC50 [1, 5]: 5.30 to 6.00; pIC50 [2, 6]: 6.00 to 7.00 |
| CCC1(c2cccc(-c3cnn(C)c3)c2)C2=C(CC(C)(C)CC2=O)Nc2n[nH]c(C(F)(F)F)c21 (stereo not drawn) [Compound 801445] | ≥ 7.00 | ≥ 7.00 |  |
| CCC1(c2cccc(OCCOC)c2)C2=C(CC(C)(C)CC2=O)Nc2n[nH]cc21 (stereo not drawn) [Compound 801446] | < 5.78 | 6.00 to 7.00 |  |
| CCC1(c2cccc(OC)c2)C2=C(CC(C)(C)CC2=O)Nc2n[nH]cc21 (stereo not drawn) [Compound 801447] | 5.30 to 6.00 | 6.00 to 7.00 |  |
| CCC1(c2cccc(OC(C)C)c2)C2=C(CC(C)(C)CC2=O)Nc2n[nH]cc21 (stereo not drawn) [Compound 801448] | 6.00 to 7.00 | ≥ 7.00 |  |
| CCC1(c2cccc(C(F)(F)F)c2)C2=C(CC(C)(C)CC2=O)Nc2n[nH]c(Br)c21 (stereo not drawn) [Compound 802358] | ≥ 7.00 | ≥ 7.00 |  |
| CC1(C)CC(=O)C2=C(C1)Nc1n[nH]c(C(F)(F)F)c1C21CCc2c(F)cccc21 (stereo not drawn) [Compound 806568] | 6.00 to 7.00 | 5.30 to 6.00 |  |
| Cc1cccc2c1CCC21C2=C(CC(C)(C)CC2=O)Nc2n[nH]cc21 (stereo not drawn) [Compound 806603] | 6.00 to 7.00 | ≥ 7.00 |  |
| CCC1(c2cccc(N3CCNCC3)c2)C2=C(CC(C)(C)CC2=O)Nc2n[nH]cc21 (stereo not drawn) [Compound 806604] | < 5.30 | < 5.78 |  |
| CC1(C)CC(=O)C2=C(C1)Nc1n[nH]cc1C2(C)c1cc(Cl)ccc1Cl (stereo not drawn) [Compound 806605] | < 5.30 | 5.30 to 6.00 |  |
| CC[C@@]1(c2ccccc2)C2=C(C[C@@H](C(F)(F)F)CC2=O)Nc2n[nH]cc21 [Compound 806607] | < 5.30 | < 5.30 |  |
| CC[C@]1(c2ccccc2)C2=C(C[C@@H](C(F)(F)F)CC2=O)Nc2n[nH]cc21 [Compound 806608] | < 5.78 | 6.00 to 7.00 |  |
| CC[C@]1(c2ccccc2)C2=C(C[C@H](C(F)(F)F)CC2=O)Nc2n[nH]cc21 [Compound 806609] | < 5.78 | 6.00 to 7.00 |  |
| CC[C@@]1(c2ccccc2)C2=C(C[C@H](C(F)(F)F)CC2=O)Nc2n[nH]cc21 [Compound 806611] | < 5.30 | < 5.30 |  |
| CC1(C)CC(=O)C2=C(C1)Nc1n[nH]cc1[C@@]21CCc2c(F)cccc21 [Compound 806632] | < 5.30 | < 5.78 |  |
